Measured values from patent publication US9034899B2, “Aryl, heteroaryl, and heterocycle substituted tetrahydroisoquinolines and use thereof” (Albany Molecular Research, Inc., priority 2009, dated 2015).

Assays:
DAT = assay: Occupancy assay, ex vivo binding in brain tissue, DAT
Text: The general procedure for brain tissue collection and transporter occupancy assessment is briefly described as follows. Mice were sacrificed by asphyxiation in CO2, rats by decapitation and dogs by IV injection of euthanasia solution. For mice and rats, after the brains were removed from the skull, the forebrain tissue (removal of the brainstem and cerebellum) was used for SERT, NET, and DAT occupancy assessment. In dogs, the striatum was dissected for DAT occupancy and the remaining forebrain tissue (without the striatum, brainstem, and cerebellum) was used for SERT and NET occupancy assessment. The brain tissues were frozen in chilled isopentane and stored at −80° C. until homogenization.
The brain tissues were thawed and then homogenized using a polytron homogenizer (Kinematica). Sample aliquots were frozen immediately and stored at −80° C. Protein content was measured for each sample using a Coomassie protein assay kit (Pierce).
On the day of ex vivo binding for occupancy assessment, frozen sample aliquots were thawed and needle homogenized, and 100 μg of the tissue was incubated for SERT, NET, and DAT binding under assay conditions summarized in Table 2. […] The filters were washed twice with ice-cold incubation buffer, punched into a clear plate prior to the addition of 200 ul scintillation fluid per well. Radioligand was measured using a Wallac Microbeta liquid scintillation counter.
The specific binding was calculated by subtracting the value of the non-specific binding from that of the total binding in each sample. The percent occupancy was calculated as (1−specific binding in drug treated/specific binding in vehicle treated)×100%. […] Nonlinear regression was performed using GraphPad Prism version 3.00 (GraphPad Software, San Diego, Calif.).

hSERT = hSERT (Homo sapiens (Human), UniProt P31645); assay: SERT radioligand binding assay ([125I]RTI-55, HEK-293 membranes); conditions: (+)-enantiomers; read-out: SERT IC50
Description: The medium was removed from the flasks and the cells rinsed with HBSS without Ca and without Mg. The cells were then incubated for 5-10 minutes in 10 mM Tris-Cl, pH 7.5, 5 mM EDTA before the cells were lifted with a combination of pipetting and scraping, as needed. The cell suspension was collected into centrifuge bottles and homogenized for 30 seconds with a Polytron homogenizer. The suspension was centrifuged for 30 minutes at 32,000×g, 4° C. The supernatant was decanted and the pellet resuspended and homogenized in 50 mM Tris-Cl, pH 7.5, 1 mM EDTA for 10 seconds. The suspension was then centrifuged again for 30 minutes at 32,000×g, 4° C. The supernatant was decanted and the pellet resuspended in 50 mM Tris-Cl, pH 7.5, 1 mM EDTA and briefly homogenized. A Bradford assay (Bio-rad) was performed and the membrane preparation diluted to 2 mg/ml with 50 mM Tris-Cl, pH 7.5, 1 mM EDTA. Aliquots were prepared, and then frozen and stored at −80° C.
Compounds were dissolved in 100% DMSO at a concentration 100 times the desired highest assay concentration, serially diluted 1:3 in 100% DMSO, and 0.4 μl/well of each solution was dispensed to a Nunc polypropylene, round bottom, 384-well plate. […] The contents of the assay plate were then transferred to a Millipore MultiscreenHTS GF/B filter plate which was pretreated with 0.5% PEI for at least one hour. The plate was vacuum filtered and washed with 7 washes of 100 μl/well 50 mM Tris-Cl, pH 7.5, 120 mM NaCl, 5 mM KCl chilled to 4° C. The filtration and washing were completed in less than 90 seconds. The plates were air-dried overnight, 12 μl/well of MicroScint scintillation fluid added, and the plates counted in a Trilux.
Each plate was run in triplicate, and the concentration response curve thus generated was fit using the four-parameter dose response equation, Y=Bottom+(Top-Bottom)/(1+10^((LogIC50−X)*HillSlope)) in order to determine the IC50 value for each compound. The radioligand concentration chosen for each assay corresponds to the Kd concentration determined through saturation binding analysis for each assay.

Chain of hSERT (P31645 whole entry): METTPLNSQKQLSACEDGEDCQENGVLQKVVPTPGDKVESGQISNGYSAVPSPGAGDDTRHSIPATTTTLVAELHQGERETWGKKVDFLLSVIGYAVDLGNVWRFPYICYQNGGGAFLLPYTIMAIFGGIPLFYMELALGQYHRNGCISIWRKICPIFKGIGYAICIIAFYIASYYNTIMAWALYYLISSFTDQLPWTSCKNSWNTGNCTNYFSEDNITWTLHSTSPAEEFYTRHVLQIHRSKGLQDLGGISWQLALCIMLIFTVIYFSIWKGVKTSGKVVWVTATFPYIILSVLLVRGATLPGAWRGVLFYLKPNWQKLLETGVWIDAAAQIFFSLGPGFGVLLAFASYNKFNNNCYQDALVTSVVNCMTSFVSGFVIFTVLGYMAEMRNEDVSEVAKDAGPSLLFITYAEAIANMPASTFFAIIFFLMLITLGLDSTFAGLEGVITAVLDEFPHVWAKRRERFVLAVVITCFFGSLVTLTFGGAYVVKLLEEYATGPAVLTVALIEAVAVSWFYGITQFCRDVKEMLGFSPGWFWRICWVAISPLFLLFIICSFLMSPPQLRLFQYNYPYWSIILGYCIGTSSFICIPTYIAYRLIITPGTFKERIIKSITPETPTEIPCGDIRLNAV

SMILES | DAT Occupancy % (DAT; dose 1 mg/kg, time point 1 h) [%] | IC50 (hSERT) [nM] | DAT Occupancy % (DAT; dose 1 mg/kg, time point 3 h) [%] | DAT Occupancy % (DAT; dose 3 mg/kg, time point 3 h) [%]
Clc1ccc(C2CNCc3cc(-c4cccnn4)ccc32)cc1Cl (centres unmarked) [Example 33, 4-(3,4-dichlorophenyl)-7-(pyridazin-3-yl)-1,2,3,4-tetrahydroisoquinoline] | 8 | 6.2 |  | 
FC(F)Oc1ccc(-c2ccc3c(c2)CNCC3c2ccc(Cl)c(Cl)c2)nn1 (centres unmarked) [Example 12, 4-(3,4-dichlorophenyl)-7-(6-(difluoromethoxy)pyridazin-3-yl)-1,2,3,4-tetrahydroisoquinoline] |  | 3.6 | 15 | 
CC1(C)NCC(c2ccc(Cl)c(Cl)c2)c2ccc(-c3ccc4ncnn4c3)cc21 (centres unmarked) [Example 40, 4-(3,4-dichlorophenyl)-7-([1,2,4]triazolo[1,5-a]pyridin-6-yl)-1,1-dimethyl-1,2,3,4-tetrahydroisoquinoline] |  | 4.2 |  | 78
CC1(C)NCC(c2ccc(Cl)c(Cl)c2)c2ccc(-c3ccc(N)nn3)cc21 (centres unmarked) [Example 13, 4-(3,4-dichlorophenyl)-7-(6-aminopyridazin-3-yl)-1,1-dimethyl-1,2,3,4-tetrahydroisoquinoline] |  | 2.3 |  | 53
Nc1ccc(-c2ccc3c(c2)CNCC3c2ccc(Cl)c(Cl)c2)nn1 (centres unmarked) [Example 34, 6-(4-(3,4-dichlorophenyl)-1,2,3,4-tetrahydroisoquinolin-7-yl)pyridazin-3-amine] | 0 | 1.8 |  | 
CC1(C)NCC(c2ccc(Cl)c(Cl)c2)c2ccc(-c3cccnn3)cc21 (single isomer, unassigned) [Example 9, 4-(3,4-dichlorophenyl)-1,1-dimethyl-7-(pyridazin-3-yl)-1,2,3,4-tetrahydroisoquinoline] | 71 | 4.8 |  | 
Cc1noc(C)c1-c1ccc2c(c1)CNCC2c1ccc(Cl)c(Cl)c1 (centres unmarked) [Example 25, 4-(4-(3,4-dichlorophenyl)-1,2,3,4-tetrahydroisoquinolin-7-yl)-3,5-dimethylisoxazole] |  | 4.9 | 0 | 
